In patent US20030203908A1, “Dihydrofolate reductase inhibitors” (priority 2000, published 2003):
In brackets after ≈: the same amount, converted by molar mass. Read-outs that look alike come from different tables or passages of the source.

What was measured:
[1] = biological target: T1, A16V.S108T mutant (mut) of DHFR from Plasmodium falciparum (Plasmodium falciparum, UniProt A7UD81, A16V/S108T); experiment: biochemical
T1 construct: The Dihydrofolate Reductase Domain of Plasmodium falciparum Thymidylate Synthase-Dihydrofolate Reductase; made in house
T1 sequence (A7UD81 1-231 A16V/S108T): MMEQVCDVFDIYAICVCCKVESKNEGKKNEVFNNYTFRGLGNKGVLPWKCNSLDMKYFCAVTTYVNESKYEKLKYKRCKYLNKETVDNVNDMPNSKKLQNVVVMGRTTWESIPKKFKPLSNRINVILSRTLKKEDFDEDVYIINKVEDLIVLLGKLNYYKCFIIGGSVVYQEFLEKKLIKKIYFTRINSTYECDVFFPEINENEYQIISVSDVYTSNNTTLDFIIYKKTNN
Procedure: (§2) For determination of the Ki values of a number of synthesized analogues, the assay reactions were initiated with affinity-purified enzyme (^˜0.005-0.01 U ml^−1), and the initial velocities in the presence of varying concentrations of inhibitors were analysed by non-linear least square fit using Kaleidagraph™ software.

[2] = test system: A16V.S108T mutant (mut) of DHFR from Plasmodium falciparum; experiment: biochemical; settings: resistance factor
Procedure: as §2

[3] = test system: resistant T9/94 strain of P. falciparum (A16V.S108T pfDHFR); experiment: In vitro antimalarial activity, [3H]-hypoxanthine incorporation, T9/94; type: cell-based, Plasmodium falciparum; settings: resistant strain T9/94
Procedure: (§1) Mol. Biochem. Parasitol. […] Science, 1976, 193, 673-675]. In vitro antimalarial activity was determined by using [^3H]-hypoxanthine incorporation method [Desjardins, R. E.; Canfield, C. J.; Haynes, J. D.; Chulay, J. D. Quantitative assessment of antimalarial activity in vitro by a semiautomated microdilution technique. Antimicrob Agents Chemother. 1979, 16, 710-718]. The drugs were initially dissolved in DMSO and diluted with the culture media. Aliquots (25 μl) of drug solution of different concentrations was placed in 96-well plate together with 200 μl of 1.5% cell suspension of parasitized erythrocytes containing 1-2% parasitemia. Final concentration of DMSO was 0.1% where there was no effect on the parasite growth. The mixtures were incubated in a 3% CO2 incubator at 37° C. After 24 h of incubation, 25 μl (0.25 μCi) of [^3H]-hypoxanthine were added to each well. The mixtures were further incubated under the same condition for 18-24 h. DNA of parasites was harvested onto glass filter paper (Unifilter, Packard, USA). The filters were dried and liquid scintillation fluid was added for radioactivity measurement in a 6-probe liquid scintillation-counter (Packard, USA).

[4] = test system: wild-type (TM4/8.2) strain of P. falciparum; experiment: microbe, parasite or virus in culture; type: cell-based, Plasmodium falciparum
Procedure: as §1

[5] = biological target: T2, wild-type (wt) DHFR from Plasmodium falciparum (Plasmodium falciparum, UniProt P13922, N108S/R59C); experiment: Inhibition of wild-type pfDHFR (spectrophotometric, Ki); type: biochemical;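 also: Affinity-purified enzyme, initial reaction rates measured across a range of inhibitor concentrations, Ki obtained by nonlinear least-squares fitting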
T2 construct: The Dihydrofolate Reductase Domain of Plasmodium falciparum Thymidylate Synthase-Dihydrofolate Reductase; made in house
T2 sequence (P13922 10-228 R59C/N108S): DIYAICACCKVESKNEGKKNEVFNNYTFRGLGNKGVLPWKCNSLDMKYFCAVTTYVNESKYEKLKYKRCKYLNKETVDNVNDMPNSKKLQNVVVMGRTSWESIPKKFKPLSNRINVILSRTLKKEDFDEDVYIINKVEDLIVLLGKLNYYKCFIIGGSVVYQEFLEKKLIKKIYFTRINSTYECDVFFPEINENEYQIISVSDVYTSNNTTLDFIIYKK
Procedure: as §2

[6] = biological target: human DHFR; experiment: Inhibition of human DHFR (I50-derived Ki); type: biochemical;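 also: recombinant human DHFR expressed in E. coli and purified by methotrexate affinity chromatography, enzyme activity followed spectrophotometrically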
Procedure: (§3) Folic acid and NADPH, were purchased from Sigma. Dihydrofolate was prepared from folic acid dithionate reduction. Methotrexate (MTX) was from Lederle Laboratories. MTX sepharose CL-6B was prepared according to the protocol described by Dann. et al. IPTG came from Boehringer Manheim. The expression system used for recombinant human DHFR production, which includes the plasmid PB-E1/RB SII, SphI-HDHFR expressed in E. coli M15, was supplied by Santi, D. V (Department of Biochemistry and Biophysics and Department of Pharmaceutical Chemistry, University of California). Recombinant T. Cruzi DHFR-TS was produced using the system pET 11c with the insertion of the complete ORF of the gene tc-dhfrts. The resulting plasmid was called pET DT.
(§4) Human and T.cruzi DHFR were produced using inducible expression systems. For human DHFR, fresh overnight cultures of E. coli M15, transformed with the plasmid, pB-E1/RB SII, SphI-HDHFR, were grown in LB and 0.1 mg/ml ampicillin medium at 28° C. For T.cruzi DHFR-TS, cultures of E. coli, BL21 (DE3) transformed with the plasmid pETDT system were grown at 37° C. The same purification protocol was used for both systems. When OD600 was at 0.8, cells pellets were collected by centrifugation, suspended in 50 ml of LB medium, containing 0.1 mg/ml of ampicillin. 10 ml of this preinocule was added to 2 litres of LB medium. Cultures were shaken at 28° C. or 37° C. (for human and T. cruzi DHFR respectively) and induction with IPTG ImM was performed when OD600 reached 0.8. After IPTG induction, cells were grown overnight in a shaker at 28° C. or 5 hours at 28° C. or 37° C. (for human and T. cruzi DHFR respectively) and then harvested by centrifugation.
(§5) Cell pellets were suspended in sonication buffer (2× TES DHFR:TES 100 mM, 2-mercaptoethanol 150 mM, EDTA 2 mM pH=7) containing protease inhibitors.
(§6) Crude extract was circulated through the MTX-Sepharose column at 4° C. at a flow rate of 0.2 ml/min until the protein was bound to the resin. The column was washed with an excess of buffer B (KH2PO410 mM pH 7, KC1 1M). Protein was eluted at 0.2 min/ml with an elution buffer (100 mM TES, 10 mM DTT, 2 mM EDTA, DHF 8.5 mM), the elution profile was collected in 1 ml fractions using a Pharmacia LKB Frac 200 collector. Finally, the protein was desalted using molecular size exclusion chromatography in a Pharmacia G-25 column. Fractions containing DHFR activity were pooled and concentrated by ultrafiltration using centripreps Amicon.
(§7) The purity of the protein preparation was assessed by detection of a single band of the correct molecular weight stained with coomasie blue following a 12% SDS-PAGE. Protein concentration was determined by the method of Bradford using a BSA as a standard. DHFR activity was measured spectrophotometrically by monitoring the decrease in absorbance at 340 mm. […] One unit of enzyme, is defined as the amount of enzyme which produces 1 nmol of product per min using ε of 12300M^−1 at 340 nm.
(§8) Inhibition of dihydrofolate reductases by 1,2-dihydro-1,3,5 triazines was analysed with T. cruzi and human DHFR.
(§9) DHFR assays contained 30 mM dihydrofolate, 0.1 mM NADPH, 50 mM TES buffer pH 7, 75 mM 2-mercaptoethanol and specified amounts of inhibitors. The reaction was initiated by addition of 2.8 or 2.3 units of T. cruzi and human, respectively, and monitored at 340 nm.
(§10) Selective inhibition of dihydrofolate reductase by 1,2-dihydro-1,3,5-triazines was analysed with T. cruzi and human DHFR. DHFR assays contained 30 μM dihydrofolate, 0.1 mM NADPH, 50 mM TES buffer pH 7, 75 mM β-mercaptoethanol and specified amounts of inhibitors. The reaction was initiated by addition of 2.8 or 2.3 units of T. cruzi and human enzyme, respectively, and monitored at 340 nm. […] KiI 50=[I]0.5/((1+[S])/Km)

[7] = biological target: T3, human DHFR (Homo sapiens, UniProt P00374); experiment: Inhibition of human DHFR (I50-derived Ki); type: biochemical; settings: for inhibitory activity against human DHFR: compared with methotrexate;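 as to all read-outs here: recombinant human DHFR expressed in E. coli and purified by methotrexate affinity chromatography, enzyme activity followed spectrophotometrically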
T3 construct: made in house; host or cells: E. coli M15
T3 sequence (P00374 1-187): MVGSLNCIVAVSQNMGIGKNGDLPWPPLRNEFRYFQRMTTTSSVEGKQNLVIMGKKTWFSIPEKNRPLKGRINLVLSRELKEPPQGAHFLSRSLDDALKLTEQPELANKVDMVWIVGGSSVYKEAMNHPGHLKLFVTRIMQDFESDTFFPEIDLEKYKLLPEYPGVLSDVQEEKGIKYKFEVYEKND
Procedure: as §3, §4, §5, §6, §7, §8, §9, §10

[8] = biological target: T4, DHFR-TS from Trypanosoma cruzi (Trypanosoma cruzi, UniProt Q27793); experiment: Inhibition of T. cruzi DHFR-TS (I50-derived Ki);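 as to all read-outs here: enzymes were recombinant T. cruzi DHFR-TS and human DHFR, both expressed in E. coli and purified on a methotrexate affinity column, with dihydrofolate and NADPH as substrates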; type: biochemical; settings: for Selectivity: human Ki / T. cruzi Ki
T4 construct: pET 11c with the insertion of the complete ORF of the gene tc-dhfrts; made in house; host or cells: E. coli BL21 (DE3)
T4 sequence (Q27793 whole entry): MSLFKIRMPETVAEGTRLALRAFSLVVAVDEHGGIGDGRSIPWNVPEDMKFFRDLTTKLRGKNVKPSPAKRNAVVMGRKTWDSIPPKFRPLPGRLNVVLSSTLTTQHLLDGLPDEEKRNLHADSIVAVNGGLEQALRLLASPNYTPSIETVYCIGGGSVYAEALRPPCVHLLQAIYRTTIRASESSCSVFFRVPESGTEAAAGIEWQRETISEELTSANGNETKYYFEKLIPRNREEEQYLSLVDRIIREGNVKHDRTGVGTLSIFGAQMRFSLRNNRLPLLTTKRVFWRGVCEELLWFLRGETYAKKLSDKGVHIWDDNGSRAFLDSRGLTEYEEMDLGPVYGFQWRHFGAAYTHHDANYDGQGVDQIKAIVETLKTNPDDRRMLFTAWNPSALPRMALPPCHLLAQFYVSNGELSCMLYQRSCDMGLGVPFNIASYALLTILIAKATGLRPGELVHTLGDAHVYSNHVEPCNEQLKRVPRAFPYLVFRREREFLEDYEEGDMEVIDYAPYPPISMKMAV
Procedure: DHFR activity was measured spectrophotometrically by monitoring the decrease in absorbance at 340 mm.
as §8, §9
Selective inhibition of dihydrofolate reductase by 1,2-dihydro-1,3,5-triazines was analysed with T. cruzi and human DHFR. DHFR assays contained 30 μM dihydrofolate, 0.1 mM NADPH, 50 mM TES buffer pH 7, 75 mM β-mercaptoethanol and specified amounts of inhibitors. The reaction was initiated by addition of 2.8 or 2.3 units of T. cruzi and human enzyme, respectively, and monitored at 340 nm.
KiI 50=[I]0.5/((1+[S])/Km)

[9] = test system: P. falciparum 3D7 (wild-type strain); experiment: In vitro inhibition of P. falciparum 3D7; type: cell-based, Plasmodium falciparum; settings: 3D7 strain; for IC50: Plasmodium falciparum, read-out: Pf-3D7 ED50
[10] = test system: P. falciparum FCR3 (resistant strain containing the A16V.S108T DHFR mutant); experiment: In vitro inhibition of P. falciparum FCR3; type: cell-based, Plasmodium falciparum; settings: for IC50: Plasmodium falciparum, read-out: Pf-FCR3 ED50
[11] = test system: Plasmodium berghei; experiment: In vivo activity against Plasmodium berghei in mice; settings: P. berghei
Procedure: These analogues were tested in vivo in a mice against Plasmodium berghei.

[12] = A16V.S108T mutant pfDHFR, read-out: Ki(mut)
[13] = Plasmodium falciparum, wild-type strain TM4/8.2
[14] = T. cruzi DHFR-TS, read-out: T. cruzi Ki (I50)

Row | SMILES | Ki [1, 12] [µM] | Ki(mut)/Ki(wt) [2] | IC50 [3] [µM] | IC50 ([4]; wild-type strain TM4/8.2) [µM] | Ki ([5]; read-out: Ki(wt)) [nM] | Ki [1] [µM] | IC50 [4, 13] [µM] | Ki ([5]; Ki(wt) nM) [nM] | Ki (human)/Ki (P. falc. mut) [6] | Ki (human)/Ki (P. falc. wt) [6] | Ki (human)/Ki (T. cruzi) [6] | Selectivity [8] | also measured
1 | CCCCOc1ccc(C2N=C(N)N=C(N)N2OCCCOc2cc(Cl)c(Cl)cc2Cl)cc1 (centres unmarked) [1-[3′-(2,4,5-trichlorophenoxy)-n-propyloxy]-2-p-n-butyloxyphenyl-4,6-diamino-1,2-dihydro-1,3,5-triazine] | 0.0082 ± 0.0008 | 2.6 | 0.041 | 1.49 | 3.2 ± 0.4 |  |  |  |  |  |  |  | 
2 | CCCOc1ccc(C2N=C(N)N=C(N)N2OCCCOc2cc(Cl)c(Cl)cc2Cl)cc1 (centres unmarked) [1-[3′-(2,4,5-trichlorophenoxy)-n-propyloxy]-2-p-n-propyloxyphenyl-4,6-diamino-1,2-dihydro-1,3,5-triazine] | 0.0061 ± 0.0007 | 3.6 | 0.029 | 0.948 | 1.7 ± 0.3 |  |  |  |  |  |  |  | 
3 | NC1=NC(c2cccc(Oc3ccccc3)c2)N(c2ccc(OCc3ccccc3)cc2)C(N)=N1 (centres unmarked) [1-p-Benzyloxyphenyl-2-m-phenoxyphenyl-4,6-diamino-1,2-dihydro-1,3,5-triazine] |  | 5 |  |  |  | 0.0045 ± 0.0006 | 0.255 | 0.9 ± 0.2 | 2.2 | 11 | 3.33 | 3.3 | melting point: 208 to 210 °C; Ki ([7]; Human Ki (I50)(nM), human DHFR): 10 nM; inhibitory activity against human DHFR [7]: comparable to that of methotrexate; Ki [8]: 0.003 µM
4 | CCCCOc1ccc(C2N=C(N)N=C(N)N2c2ccc(Cl)cc2)cc1 (centres unmarked) [(Ia) R2=p-butyloxyphenyl, 1-p-chlorophenyl-2-p-n-butyloxyphenyl-4,6-diamino-1,2-dihydro-1,3,5-triazine] |  | 5.0 |  |  |  | 0.005 | 0.287 | 1 ± 0.1 | 80 | 400 | 15.3 | 15 | IC50 [9]: 0.14 µg/mL (≈ 0.376 µM); IC50 ([10]; in vitro, FCR3 strain): 0.091 µg/mL (≈ 0.245 µM); Ki ([7]; Human Ki (I50)(nM), human DHFR): 400 nM; Ki [8]: 0.026 µM
5 | NC1=NC(c2ccc(Cl)cc2)N(c2ccc(Cl)cc2)C(N)=N1 (centres unmarked) [(Ia) R2=p-chlorophenyl] | 0.105 ± 0.017 | 14.0 | 0.386 | 0.499 | 7.5 ± 0.9 |  |  |  | 28 | 395 | 11.0 | 11 | Ki ([7]; human DHFR, read-out: Human Ki (I50)): 2960 nM; Ki [8, 14]: 0.27 µM
6 | NC1=NC(c2cccc(Oc3ccc(Cl)c(Cl)c3)c2)N(c2cccc(Cl)c2)C(N)=N1 (centres unmarked) [(Ib) R2=3-(3,4-dichlorophenoxy)phenyl] |  | 4.1 |  |  |  | 0.0091 ± 0.0007 | 3.9 | 2.2 ± 0.2 |  |  |  |  | Mean % infected RBC ([11]; 25 mg/kg daily x4): 13.0%
7 | NC1=NC(c2cccc(Oc3ccc(Cl)cc3)c2)N(c2cccc(Cl)c2)C(N)=N1 (centres unmarked) [(Ib) R2=3-(4-chlorophenoxy)phenyl] |  | 2.7 |  |  |  | 0.0035 ± 0.0005 | 3.95 | 1.3 |  |  |  |  | IC50 [9]: 0.36 µg/mL (≈ 0.844 µM); Mean % infected RBC ([11]; 25 mg/kg daily x4): 5.0%; IC50 ([10]; in vitro, FCR3 strain): 0.078 µg/mL (≈ 0.183 µM)
8 | COc1ccc(Oc2cccc(C3N=C(N)N=C(N)N3c3cccc(Cl)c3)c2)cc1 (centres unmarked) [(Ib) R2=3-(4-methoxyphenoxy)phenyl] |  | 1.1 |  |  |  | 0.0025 ± 0.0003 | 4.12 | 2.3 ± 0.1 |  |  |  |  | Mean % infected RBC ([11]; 25 mg/kg daily x4): 1.94%
9 | NC1=NC(c2cccc(Oc3ccccc3)c2)N(c2cccc(Cl)c2)C(N)=N1 (centres unmarked) [(Ib) R2=3-phenoxyphenyl, 1-m-chlorophenyl-2-m-phenoxyphenyl-4,6-diamino-1,2-dihydro-1,3,5-triazine] |  | 1.9 |  |  |  | 0.0019 | 2.3 | 1 ± 0.2 | 0.8 | 1.8 | 0.5 | 0.5 | IC50 [9]: 0.22 µg/mL (≈ 0.561 µM); Mean % infected RBC ([11]; 25 mg/kg daily x4): 7.05%; ED50 against the resistant Pf FCR-3 strain in vitro [10]: 0.0008 µM; IC50 ([10]; in vitro, FCR3 strain): 0.0008 µg/mL (≈ 0.00204 µM); Ki ([7]; Human Ki (I50)(nM), human DHFR): 2 nM; inhibitory activity against human DHFR [7]: comparable to that of methotrexate; Ki [8]: 0.004 µM
10 | NC1=NC(c2ccc(Oc3ccccc3)cc2)N(c2cccc(Cl)c2)C(N)=N1 (centres unmarked) [(Ib) R2=4-phenoxyphenyl] |  | 3.9 |  |  |  | 0.0027 ± 0.0004 | 0.647 | 0.7 |  |  |  |  | Mean % infected RBC ([11]; 25 mg/kg, schedule b): 11.42%; IC50 ([10]; in vitro, FCR3 strain): 0.004 µg/mL (≈ 0.0102 µM)
11 | NC1=NC(c2cccc(OCc3ccccc3)c2)N(c2cccc(COc3cc(Cl)c(Cl)cc3Cl)c2)C(N)=N1 (centres unmarked) [(Id1) R2=3-benzyloxyphenyl] | 0.0117 ± 0.0032 | 1.1 | 1.73 | 14 | 10.3 ± 2.6 |  |  |  | 1.9 | 2.1 | 0.7 | 0.73 | Ki ([7]; read-out: Human Ki (I50)): 22 nM; Ki [8, 14]: 0.03 µM
12 | NC1=NC(c2cccc(Oc3ccc(Cl)cc3)c2)N(c2cccc(/C=C/c3ccc(Cl)cc3Cl)c2)C(N)=N1 (centres unmarked) [(Id2) R2=3-(4-chlorophenoxy)phenyl] | 0.21 ± 0.018 | 0.9 | > 10 | > 10 | 219 ± 11 |  |  |  |  |  |  |  | 
13 | NC1=NC(c2cccc(Oc3ccccc3)c2)N(c2cccc(/C=C/c3ccc(Cl)cc3Cl)c2)C(N)=N1 (centres unmarked) [(Id2) R2=3-phenoxyphenyl] | 0.0108 ± 0.0012 | 1.7 | 4.32 | 4.11 | 6.5 ± 0.5 |  |  |  |  |  |  |  | 
14 | CCCOc1cccc(C2N=C(N)N=C(N)N2c2cccc(/C=C/c3ccc(Cl)cc3Cl)c2)c1 (centres unmarked) [(Id2) R2=3-propyloxyphenyl] | 0.0192 ± 0.0027 | 14.8 | 5.41 | 25.4 | 1.3 ± 0.3 |  |  |  |  |  |  |  | 
15 | CCN(CC)CCCC(C)Nc1ccnc2cc(Cl)ccc12 (centres unmarked) [Chloroquine, reference compound] |  |  |  |  |  |  |  |  |  |  |  |  | Mean % infected RBC ([11]; 10 mg/kg daily x4): 3.58%
16 | NC1=NC(c2cccc(OCc3ccccc3)c2)N(c2ccc(OCc3ccccc3)cc2)C(N)=N1 (centres unmarked) [R2=3-BnOC6H4, X=BnO, Y=H, 1-p-benzyloxyphenyl-2-m-benzyloxyphenyl-4,6-diamino-1,2-dihydro-1,3,5-triazine] | 0.0057 ± 0.0006 | 4.4 | 0.255 |  | 1.3 ± 0.2 |  |  |  | 56 | 245 | 8.0 | 8.0 | IC50 [4]: 3.45 µM; Ki ([7]; read-out: Human Ki (I50)): 319 nM; Ki [8, 14]: 0.04 µM
17 | NC1=NC(c2ccc(Oc3ccc(C(F)(F)F)cc3)cc2)N(c2cccc(Cl)c2)C(N)=N1 (centres unmarked) [R2=4-(4-CF3PhO)C6H4, X=H, Y=Cl] |  |  |  |  |  |  |  |  |  |  |  |  | Mean % infected RBC ([11]; 24 mg/kg daily x4): 4.4%
18 | CCCCOc1ccc(C2N=C(N)N=C(N)N2c2cccc(Cl)c2)cc1 (centres unmarked) [R2=4-nBuOC6H4, X=H, Y=Cl] |  |  |  |  |  |  |  |  |  |  |  |  | Pf-3D7 ED50 [9]: 0.3 µg/mL; Mean % infected RBC ([11]; 25 mg/kg daily x4): 16.46%; Pf-FCR3 ED50 ([10]; in vitro, FCR3 strain): 0.0038 µg/mL
